In US11530244B2, “Cyclic polypeptides for PCSK9 inhibition” (priority 2018, dated 2022):
Like-named read-outs stand apart in the source and are kept apart here. Starred links: 1 amine or outer side, 2 acyl side, 3 side chain; linkers in the order of their positions; H or OH if unused. Positions of bridges follow the written chain, without caps; N, C: chain ends. Non-standard residues stand in square brackets, D forms with d. Residues, ends and D or L forms follow the SMILES beside them. NHCH2C6H4(p)CH2CH2NH = c1cc(CN[*:1])ccc1CCN[*:2]; NMeTrp(1-Me) = CN[C@@H](Cc1cn(C)c2ccccc12)C(=O)O; Ala(imidazol-2-yl) = N[C@@H](Cc1ncc[nH]1)C(=O)O; Arg(NO2) = N=C(NCCC[C@H](N)C(=O)O)N[N+](=O)[O-]; Trp(5-OH) = N[C@@H](Cc1c[nH]c2ccc(O)cc12)C(=O)O; Trp(5-F) = N[C@@H](Cc1c[nH]c2ccc(F)cc12)C(=O)O; X3 = O=C(CCSCc1cc(F)cc(CSCCN[*:1])c1)[*:2]; Pro(cis-4-F) = O=C(O)[C@@H]1C[C@H](F)CN1; X4 = O=C(CCSCc1cccc(CSCCN[*:1])c1)[*:2]; 2Nal = N[C@@H](Cc1ccc2ccccc2c1)C(=O)O; mXylylene = c1cc(C[*:1])cc(C[*:2])c1; AEF = NCCOc1ccc(C[C@H](N)C(=O)O)cc1; cisHyp = O=C(O)[C@@H]1C[C@H](O)CN1; NMeT = CN[C@H](C(=O)O)[C@@H](C)O; X59 = Fc1ccc(C[*:2])cc1C[*:1]; dNMeL = CN[C@H](CC(C)C)C(=O)O; Suc = O=C(CCC(=O)[*:2])[*:1]; αMeP = C[C@@]1(C(=O)O)CCCN1; Nva = CCC[C@H](N)C(=O)O; Mpa = O=C(O)CCS

Target: PCSK9 (Homo sapiens (Human), UniProt Q8NBP7)
Sequence (Q8NBP7 153-692): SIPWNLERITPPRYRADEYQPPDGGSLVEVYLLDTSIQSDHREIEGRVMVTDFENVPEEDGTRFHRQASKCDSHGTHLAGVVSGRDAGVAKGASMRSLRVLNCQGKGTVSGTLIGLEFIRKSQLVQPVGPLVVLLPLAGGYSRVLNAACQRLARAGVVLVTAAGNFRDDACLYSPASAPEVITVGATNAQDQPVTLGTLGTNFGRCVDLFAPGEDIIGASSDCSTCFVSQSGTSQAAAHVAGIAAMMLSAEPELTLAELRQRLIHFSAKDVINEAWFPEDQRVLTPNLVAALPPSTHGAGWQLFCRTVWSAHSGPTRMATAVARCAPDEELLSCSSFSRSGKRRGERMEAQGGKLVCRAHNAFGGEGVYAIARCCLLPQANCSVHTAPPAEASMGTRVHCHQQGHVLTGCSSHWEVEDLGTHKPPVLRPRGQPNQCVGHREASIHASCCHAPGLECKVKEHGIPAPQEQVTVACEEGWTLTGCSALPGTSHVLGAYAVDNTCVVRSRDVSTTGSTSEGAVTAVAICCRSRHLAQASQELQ
Test: PCSK9 Alexa FRET Standard assay (displacement of AlexaFluor647 tagged cyclic peptide Reagent A)
Assay type: binding
Procedure: A solution containing 1 nM biotinylated PCSK9+2.5 nM Lance Streptavidin Europium (Strep-Eu) was made in 50 mM HEPES pH 7.4, 0.15 M NaCl, 5 mM CaCl2), 0.01% BSA, and 0.01% Surfactant P20. A separate solution containing 40 nM of the AlexaFluor tagged cyclic peptide was made in the same buffer system. An Echo was used to transfer 0.750 ul of compound to an assay plate followed by the addition of 15 ul of PCSK9+Stept-Eu and 15 ul of AF peptide. The final assay volume was 30.750 ul containing 0.5 nM PCSK9, 1.25 nM Strep-Eu, and 20 nM AF cyclic peptide. The reaction was incubated at room temperature for at least two hours prior to fluorescence measurements using an Envision Multilabel Reader. IC50 values were determined by fitting data to a sigmoidal dose-response curve using nonlinear regression. Ki was then calculated from the IC50 and the KD of AF cyclic peptide. Counts (B-counts) of the europium-labeled PCSK9 were followed to observe if compounds were […]. A fall off of the B-counts likely indicated a false positive of inhibition. Data from this procedure was reported as “A=‘numerical value’ (nanomolar)”

[1] = PCSK9 Alexa FRET Standard assay, 0.5 nM PCSK9, 20 nM AF cyclic peptide Reagent A, read-out: IC50

Structure (SMILES)	IC50 [1]	IC50 (IC50)
CCC[C@@H]1NC(=O)CCSCc2cccc(c2)CSC[C@@H](C(N)=O)NC(=O)[C@@H]2CCCN2C(=O)[C@H](Cc2ccc(OC)cc2)NC(=O)[C@H]([C@@H](C)OC)N(C)C(=O)[C@@H]2CCCN2C(=O)[C@H](Cc2cn(C)c3ccccc23)N(C)C(=O)[C@H](Cc2ccc3ccccc3c2)NC(=O)[C@@H](CC(C)C)N(C)C1=O [Compound 039] ([Mpa][Nva][dNMeL][2Nal][NMeTrp(1-Me)]P[NMeT](Me)Y(Me)PC-NH2; linker 1-10 via mXylylene)	21 to 50 µM	
COc1ccc(C[C@@H]2NC(=O)[C@@H]([C@H](C)O)NC(=O)[C@@H]3C[C@H](O)CN3C(=O)[C@H](Cc3c[nH]c4ccc(F)cc34)NC(=O)[C@H](Cc3c[nH]c4ccc(F)cc34)NC(=O)[C@@H](C)NC(=O)[C@H](CCCCN)NC(=O)CCSCc3cccc(c3)CSCCNC(=O)[C@]3(C)CCCN3C2=O)cc1 [Compound 085] (cyclo(K[dA][Trp(5-F)][Trp(5-F)][cisHyp][dT]Y(Me)[αMeP][X4]))	21 to 50 µM	
COc1ccc(C[C@@H]2NC(=O)[C@H]([C@H](C)O)NC(=O)[C@@H]3CCCc4cn(nn4)CCCC[C@H](NC(=O)[C@@H](C)NC(=O)[C@H](CCCCN)NC(=O)CCSCc4cccc(c4)CSCCNC(=O)[C@]4(C)CCCN4C2=O)C(=O)N[C@@H](Cc2c[nH]c4ccc(F)cc24)C(=O)N3)cc1 [Compound 526]	0.00011 to 0.1 µM	
COc1ccc(C[C@@H]2NC(=O)[C@H](Cc3cnc[nH]3)NC(=O)[C@H](CC(=O)O)NC(=O)[C@H](Cc3c[nH]c4ccc(F)cc34)NC(=O)[C@H](Cc3c[nH]c4ccc(F)cc34)NC(=O)[C@@H](C)NC(=O)[C@H](NC(C)=O)CCC(=O)NCc3ccc(cc3)CCNC(=O)C[C@@H](C(N)=O)NC(=O)[C@]3(C)CCCN3C2=O)cc1 [Compound 451] (Ac-[dE][dA][Trp(5-F)][Trp(5-F)]DHY(Me)[αMeP]D-NH2; linker 1-9 via NHCH2C6H4(p)CH2CH2NH)	0.1 to 1 µM	
COc1ccc(C[C@@H]2NC(=O)[C@@H]([C@H](C)O)NC(=O)[C@@H]3C[C@H](O)CN3C(=O)[C@H](Cc3c[nH]c4ccc(F)cc34)NC(=O)[C@H](Cc3c[nH]c4ccc(F)cc34)NC(=O)[C@@H](C)NC(=O)[C@H](CCCCN)NC(=O)CCSCc3cc(F)cc(c3)CSCCNC(=O)[C@]3(C)CCCN3C2=O)cc1 [Compound 086] (cyclo(K[dA][Trp(5-F)][Trp(5-F)][cisHyp][dT]Y(Me)[αMeP][X3]))	21 to 50 µM	
COc1ccc(C[C@@H]2NC(=O)[C@H](Cc3ncc[nH]3)NC(=O)[C@H](CC(=O)O)NC(=O)[C@H](Cc3c[nH]c4ccc(F)cc34)NC(=O)[C@H](Cc3c[nH]c4ccc(F)cc34)NC(=O)[C@@H](C)NC(=O)[C@H](CCC/N=C(\N)N[N+](=O)[O-])NC(=O)CCSCc3cccc(c3)CSCCNC(=O)[C@]3(C)CCCN3C2=O)cc1 [Compound 445] (cyclo([Arg(NO2)][dA][Trp(5-F)][Trp(5-F)]D[Ala(imidazol-2-yl)]Y(Me)[αMeP][X4]))		21 to 50 µM

The next lines start with results.

IC50 [1]	Structure (SMILES)	IC50 (IC50)
0.1 to 1 µM	C[C@@]12CCCN1C(=O)[C@H](Cc1ccc(O)cc1)NC(=O)[C@H](Cc1cnc[nH]1)NC(=O)[C@H](CC(=O)O)NC(=O)[C@H](Cc1c[nH]c3ccc(F)cc13)NC(=O)[C@H](Cc1c[nH]c3ccc(O)cc13)NC(=O)CNC(=O)[C@H](CCCCN)NC(=O)CCSCc1cccc(c1)CSC[C@@H](C(N)=O)NC2=O [Compound 414] ([Mpa]KG[Trp(5-OH)][Trp(5-F)]DHY[αMeP]C-NH2; linker 1-10 via mXylylene)	
21 to 50 µM	COc1ccc(C[C@@H]2NC(=O)[C@H]([C@@H](C)O)NC(=O)[C@@H]3CCCN3C(=O)[C@H](Cc3c[nH]c4ccc(F)cc34)NC(=O)[C@H](Cc3c[nH]c4ccc(F)cc34)NC(=O)[C@@H](C)NC(=O)[C@H](CCCCN)NC(=O)CCSCc3cc(ccc3F)CSC[C@@H](C(N)=O)NC(=O)[C@]3(C)CCCN3C2=O)cc1 [Compound 069] ([Mpa]K[dA][Trp(5-F)][Trp(5-F)]PTY(Me)[αMeP]C-NH2; linker 1-10 via X59)	
21 to 50 µM	COc1ccc(C[C@@H]2NC(=O)[C@H]([C@@H](C)O)NC(=O)[C@@H]3C[C@H](F)CN3C(=O)[C@H](Cc3c[nH]c4ccc(F)cc34)NC(=O)[C@H](Cc3c[nH]c4ccc(F)cc34)NC(=O)[C@@H](C)NC(=O)[C@H](CCCCN)NC(=O)CCC(=O)NCCOc3ccc(cc3)C[C@@H](C(N)=O)NC(=O)[C@]3(C)CCCN3C2=O)cc1 [Compound 098] (K[dA][Trp(5-F)][Trp(5-F)][Pro(cis-4-F)]TY(Me)[αMeP][AEF]-NH2; linker N-9 via Suc)	
0.1 to 1 µM	CC(C)C[C@H]1C(=O)N[C@@H](Cc2ccc(O)cc2)C(=O)N2CCC[C@@]2(C)C(=O)N[C@H](C(N)=O)CSCc2cccc(c2)CSCCC(=O)N[C@@H](CCCCN)C(=O)NCC(=O)N[C@@H](Cc2c[nH]c3ccc(F)cc23)C(=O)N[C@@H](Cc2c[nH]c3ccc(F)cc23)C(=O)N2CCC[C@@]23CCN1C3=O [Compound 127]	
